Experimental data as given in article PMC11374660, “The novel family of Warbicin® compounds inhibits glucose uptake both in yeast and human cells and restrains cancer cell proliferation” (Frontiers in Oncology, 2024).

Experiments:
[1] = test system: MCF10A breast epithelial cell line transformed with H-RAS^V12; assay: Growth and apoptosis of MCF10A H-RAS^V12 cells (IncuCyte); type: cell-based, human; settings: MCF10A H-RAS^V12, 1 mM glucose, 25 µM
Method: For both adherent A549 and MCF10A H-RAS^V12 cell lines, growth curves were established using the IncuCyte® ZOOM technology. By collecting phase contrast images, the IncuCyte® software provides a calculated confluency percentage from which growth curves can be deducted. The cell number/density was measured by calculating the confluency of phase objects (cells) sticking on the bottom of the well. Cells were seeded at a density of 1000 - 1500 cells/well in a Nunc-Edge™ 96-well plate (Thermo Fisher Scientific) and growth was typically measured over 3 to 5 days. For the measurement of apoptosis induction using the MCF10A H-RAS^V12 cell line, the IncuCyte® Caspase-3/7 green dye was added to the medium in the recommended concentration at the beginning of the growth curve experiment. Apoptosis was detected by taking fluorescent images by excitation at 488 nm followed by IncuCyte® software analysis. Cell growth of the KMS-12-PE multiple myeloma cell line, which grows in suspension, was measured by manual cell counting. Cells were initially seeded at a density of 10^4 cells/well and incubated for 4 days after which the cell number was counted. For all cell lines, the same medium used for pregrowth was also used for the growth curve experiment, albeit with different glucose concentrations depending on the experimental design. With compound administration, the final concentration of DMSO never exceeded 0.1%. Typically, at least four technical repeats were included per condition.

hexokinase = assay: Hexokinase activity in extracts of wild type yeast cells; type: biochemical, S. cerevisiae; settings: 50 µM; variable glucose / 5 mM ATP and variable ATP / 5 mM glucose
Method: In vitro hexokinase activity of yeast cells was determined as described previously ([44], [76]). As such, the yeast cells were first grown to exponential phase on Complete Synthetic medium supplemented with 110 mM galactose. The cells were harvested and washed with ice-cold 25 mM MES buffer pH 6. Subsequently, cells were resuspended in lysis buffer (50 mM HEPES pH 7, 150 mM NaCl, 2.5 mM MgCl2, 5% glycerol and 1% Triton X-100) containing protease inhibitor after which the yeast cells were mechanically lysed. After protein level determination, total protein concentration was diluted to 0.1 mg/mL in reaction buffer (50 mM HEPES pH 7, 150 mM NaCl, 2.5 mM MgCl2, 5% glycerol). For measuring activity, reaction buffer was supplemented with 1.07 mM NADP^+ and 10 U/mL Glu6P dehydrogenase (Sigma-Aldrich G7877). After temperature equilibration of the plate at 30°C, the reaction was started by adding both ATP and glucose to the reaction buffer. OD340 was measured using the Synergy H1 Hybrid reader and hexokinase activity was determined based on the linear increase of absorbance in the first 10-20 s.

[2] = test system: hxk2Δ hxk1Δ glk1Δ yeast cells; assay: Glucose uptake in hxk2Δ hxk1Δ glk1Δ yeast cells; type: cell-based, S. cerevisiae; settings: strain lacking glucose phosphorylation
Method: Zero-trans uptake of radioactively labeled [U-^14C]glucose, [U-^14C]fructose or [U-^14C]galactose by S. cerevisiae cells was determined in accordance with previous studies ([45], [75]). Cells were grown on different carbon sources depending on the experiment. For measuring glucose uptake activity in the tps1Δ and tps1Δ hxtΔ strains, cells were grown on YP medium containing 325 mM glycerol (measurement of 10 s). Typically, for compound characterization and kinetic studies in wild type and tps1Δ strains, cells were (pre)grown on Complete Synthetic medium supplemented with 110 mM galactose (measurement of 10 s). In the experiments on the influence of hexokinase activity on the sugar uptake rate, the measurement duration was shortened to 5 s and cells were always grown on YP medium containing 325 mM glycerol and 430 mM ethanol. After harvesting, cells were washed twice with ice-cold 25 mM MES-buffer pH 6, and resuspended in their respective medium without sugar to a final concentration of 45 mg (wet weight)/mL. The amount of added tracer was estimated to give a response close to at least 1000 counts per min in order to adequately counter background noise. […] The loaded filter was transferred to a scintillation vial containing 3 mL liquid scintillation cocktail (Ultima-Flo M, Perkin Elmer) and counted using the Hidex 300 SL. […]

[3] = test system: hxk2Δ hxk1Δ GLK1 yeast cells; assay: Sugar uptake in hxk2Δ hxk1Δ GLK1 yeast cells; type: cell-based, S. cerevisiae
Method: Zero-trans uptake of radioactively labeled [U-^14C]glucose, [U-^14C]fructose or [U-^14C]galactose by S. cerevisiae cells was determined in accordance with previous studies ([45], [75]). Cells were grown on different carbon sources depending on the experiment. For measuring glucose uptake activity in the tps1Δ and tps1Δ hxtΔ strains, cells were grown on YP medium containing 325 mM glycerol (measurement of 10 s). Typically, for compound characterization and kinetic studies in wild type and tps1Δ strains, cells were (pre)grown on Complete Synthetic medium supplemented with 110 mM galactose (measurement of 10 s). In the experiments on the influence of hexokinase activity on the sugar uptake rate, the measurement duration was shortened to 5 s and cells were always grown on YP medium containing 325 mM glycerol and 430 mM ethanol. After harvesting, cells were washed twice with ice-cold 25 mM MES-buffer pH 6, and resuspended in their respective medium without sugar to a final concentration of 45 mg (wet weight)/mL. The amount of added tracer was estimated to give a response close to at least 1000 counts per min in order to adequately counter background noise. Cells were first preincubated for 10 min at 30°C with the compound to acclimate the cells to the temperature and to allow adequate interaction with the compound prior to uptake. Next, hexose sugar was mixed with the cell suspension, which was then incubated at 30°C for 5 or 10 s, depending on the experiment, after which the cells were rapidly filtered over a glass microfiber filter (Whatman GF/C) and washed three times with ice-cold dH2O. The loaded filter was transferred to a scintillation vial containing 3 mL liquid scintillation cocktail (Ultima-Flo M, Perkin Elmer) and counted using the Hidex 300 SL. Three blank measurements per strain were typically included to account for background signal, for which the cells were first quenched before adding the radioactive label.

human GLUT1^V69M = target: T1, human GLUT1^V69M (Homo sapiens, UniProt P11166, V69M); assay: Glucose uptake by GLUT1^V69M expressed in yeast RE700A hxt^0 gal2Δ; type: cell-based; settings: 25 µM, hxt^0 gal2Δ strain
T1 construct: expressed in transfected cells; host or cells: S. cerevisiae RE700A hxt0 gal2Δ transformed with pFL38Kan-GLUT1^V69M (TEF1 promoter, low-copy)
T1 sequence (P11166 1-492 V69M): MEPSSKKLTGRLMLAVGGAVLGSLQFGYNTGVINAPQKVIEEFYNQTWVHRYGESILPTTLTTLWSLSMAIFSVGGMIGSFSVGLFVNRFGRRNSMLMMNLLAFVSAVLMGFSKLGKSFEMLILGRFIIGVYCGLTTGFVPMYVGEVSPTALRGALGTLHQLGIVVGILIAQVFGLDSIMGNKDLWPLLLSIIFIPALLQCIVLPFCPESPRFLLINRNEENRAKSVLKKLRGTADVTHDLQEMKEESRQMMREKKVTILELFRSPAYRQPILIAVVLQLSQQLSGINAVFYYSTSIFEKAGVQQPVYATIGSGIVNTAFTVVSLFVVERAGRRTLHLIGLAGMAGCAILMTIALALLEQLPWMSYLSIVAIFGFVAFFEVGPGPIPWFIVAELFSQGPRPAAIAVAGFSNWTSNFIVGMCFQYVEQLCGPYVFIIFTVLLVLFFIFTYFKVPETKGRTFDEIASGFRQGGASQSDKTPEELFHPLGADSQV
Method: Cells of S. cerevisiae were either grown in minimal or rich medium. For minimal medium, cells were grown in Complete Synthetic medium (MP biomedicals) containing 0.5% (w/v) ammonium sulphate (Sigma-Aldrich), 0.17% (w/v) yeast nitrogen base without amino acids and without ammonium sulphate, supplemented with 100 mg/L adenine. In the case of auxotrophic selection, the appropriate composition of essential amino acids (MP Biomedicals) was chosen. For liquid medium, pH was adjusted to 5.5 and for solid medium (2% agar) to 6.5 with KOH. For rich medium, cells were grown on YP medium (1% w/v yeast extract, 2% w/v bacteriological peptone), supplemented with 100 mg/L adenine. Cells of the EBY.VW4000 hxt^0 strain expressing a single HXT carrier or GLUT isoform were (pre)grown in YP medium with 58 mM maltose (which is taken up by its own dedicated maltose transporter). S. cerevisiae cells were always grown at 30°C. Liquid cultures were shaken at 200 rpm.
Zero-trans uptake of radioactively labeled [U-^14C]glucose, [U-^14C]fructose or [U-^14C]galactose by S. cerevisiae cells was determined in accordance with previous studies ([45], [75]). Cells were grown on different carbon sources depending on the experiment. […] The loaded filter was transferred to a scintillation vial containing 3 mL liquid scintillation cocktail (Ultima-Flo M, Perkin Elmer) and counted using the Hidex 300 SL. […]

[4] = 250 µM CCCP or 50 µM WBC-A 10 min prior, 100 mM maltose with the tracer

Row | Compound | induction of apoptosis (caspase 3/7 dye) [1] | inhibition of proliferation [1] | effect on in vitro hexokinase activity (hexokinase) | 1 mM glucose uptake rate [2] | fructose uptake at tracer concentration [3, 4] | glucose uptake at tracer concentration [3, 4] | inhibition at 50 µM ([3]; Saccharomyces cerevisiae, read-out: inhibition of fructose transport) [%] | inhibition of 2.5 mM glucose uptake by GLUT1^V69M (human GLUT1^V69M)
1 | Cc1nc(SCC(=O)c2ccc3c(c2)NC(=O)CO3)c2c(-c3cccs3)csc2n1 [WBC-11C] | strong induction of apoptosis | highest potency |  |  |  |  |  | 
2 | Cc1nc(Sc2nnc3n2CCCCC3)c2c(-c3cccs3)csc2n1 [WBC-A] |  |  | No significant effect | little further inhibition | little inhibition of fructose uptake | strong inhibition of glucose uptake | ~30 | inhibited glucose uptake both by Hxt7 and GLUT1^V69M
